The test concerns the target T1, CDK2/CycE (Homo sapiens, UniProt P24941).
T1 construct: GST; purchased ProQinase GmbH (Freiburg, Germany); host or cells: insect cells (Sf9)
Kind of test: CDK2/CycE kinase assay (Method 2, TR-FRET). The class given is biochemical. To be noted: Method 2, 10 μM ATP. An excerpt: 2. CDK2/CycE Kinase Assay:
CDK2/CycE-inhibitory activity of compounds of the present invention was quantified employing the CDK2/CycE TR-FRET assay as described in the following paragraphs:
Recombinant fusion proteins of GST and human CDK2 and of GST and human CycE, expressed in insect cells (Sf9) and purified by Glutathion-Sepharose affinity chromatography, were purchased from ProQinase GmbH (Freiburg, Germany). As substrate for the kinase reaction biotinylated peptide biotin-Ttds-YISPLKSPYKISEG (C-terminus in amid form) was used which can be purchased e.g. form the company JERINI Peptide Technologies (Berlin, Germany).
For the assay 50 nl of a 100 fold concentrated solution of the test compound in DMSO was pipetted into a black low volume 384 well microtiter plate (Greiner Bio-One, Frickenhausen, Germany), 2 μl of a solution of CDK2/CycE in aqueous assay buffer [50 mM Tris/HCl pH 8.0, 10 mM MgCl2, 1.0 mM dithiothreitol, 0.1 mM sodium ortho-vanadate, 0.01% (v/v) Nonidet-P40 (Sigma)] were added and the mixture was incubated for 15 min at 22° C. to allow pre-binding of the test compounds to the enzyme before the start of the kinase reaction. Then the kinase reaction was started by the addition of 3 μl of a solution of adenosine-tri-phosphate (ATP, 16.7 μM=>final conc. in the 5 μl assay volume is 10 μM) and substrate (1.25 μM=>final conc. in the 5 μl assay volume is 0.75 μM) in assay buffer and the resulting mixture was incubated for a reaction time of 25 min at 22° C. The concentration of CDK2/CycE was adjusted depending of the activity of the enzyme lot and was chosen appropriate to have the assay in the linear range, typical concentrations were in the range of 130 ng/mL. The reaction was stopped by the addition of 5 μl of a solution of TR-FRET detection reagents (0.2 μM streptavidine-XL665 [Cisbio Bioassays, Codolet, France] and 1 nM anti-RB(pSer807/pSer811)-antibody from BD Pharmingen [#558389] and 1.2 nM LANCE EU-W1024 labeled anti-mouse IgG antibody [Perkin-Elmer, product no. AD0077]) in an aqueous EDTA-solution (100 mM EDTA, 0.2% (w/v) bovine serum albumin in 100 mM HEPES/NaOH pH 7.0).
The resulting mixture was incubated 1 h at 22° C. to allow the formation of complex between the phosphorylated biotinylated peptide and the detection reagents. Subsequently the amount of phosphorylated substrate was evaluated by measurement of the resonance energy transfer from the Eu-chelate to the streptavidine-XL. Therefore, the fluorescence emissions at 620 nm and 665 nm after excitation at 350 nm was measured in a TR-FRET reader, e.g. a Rubystar (BMG Labtechnologies, Offenburg, Germany) or a Viewlux (Perkin-Elmer). The ratio of the emissions at 665 nm and at […] was taken as the measure for the amount of phosphorylated substrate. The data were normalised (enzyme reaction without inhibitor=0% inhibition, all other assay components but no enzyme=100% inhibition).

Molecule `CS(=N)(=O)Cc1ccnc(Nc2cc(-c3ccc(F)c4ccoc34)c(F)cn2)c1` (single isomer, unassigned; (-)) [Example 15, (−)-5-Fluoro-4-(4-fluoro-1-benzofuran-7-yl)-N-{4-[(S-methylsulfonimidoyl)methyl]pyridin-2-yl}pyridin-2-amine] gave an IC50 of 121 nM.

Consider `CS(=N)(=O)Cc1ccnc(Nc2cc(-c3ccc(F)c4ccoc34)c(F)cn2)c1` (single isomer, unassigned; (+)) [Example 14, (+)-5-Fluoro-4-(4-fluoro-1-benzofuran-7-yl)-N-{4-[(S-methylsulfonimidoyl)methyl]pyridin-2-yl}pyridin-2-amine], for which inhibition was half-maximal at 142 nM (IC50).

The values are drawn from patent US9770445B2, “Sulfoximine substituted 5-fluoro-N-(pyridin-2-yl)pyridin-2-amine derivatives and their use as CDK9 kinase inhibitors” (BAYER PHARMA AKTIENGESELLSCHAFT, priority 2013, dated 2017).
